Patent publication US20250082659A1, “MANNO-OLIGOSACCHARIDE COMPOSITIONS FOR PATHOGEN CONTROL” (priority 2022, published 2025)

Tested on: Streptococcus mutans
Experiment: Inhibition of Streptococcus mutans by penicillin with or without MOS (Example 12)
Details: BHI media

## penicillin
  inhibition of S. mutans growth: 10%
